We go through three compounds from paper PMC4861708 (Frontiers in Cell and Developmental Biology, 2016).

Series [1] deals with P. aeruginosa DSM 3227 (ATCC 19429). Type of series: cell-based, Pseudomonas aeruginosa. Particulars: DSM 3227, 24 h. Here is the method:
(§1) MICs of P. aeruginosa strains DSM 1117 (ATCC 27853), DSM 3227 (ATCC 19429), and DSM 9644 were determined in a microdilution broth assay using 50 or 100% MHB (11.5 and 23 g/L MHB, respectively) whereas MICs of E. coli DSM 1103 (ATCC 25922) and K. pneumoniae DSM 681 (ATCC 10031) were determined in TSB (30 g/L TSB). Peptides (1 g/L in water) were serially two-fold diluted in a 96-well microtiter plate (PS, sterile, flat bottom) in 50 μL of the corresponding medium to final concentrations of 512–4 μg/mL. Bacteria were grown in nutrient broth overnight and diluted to a cell concentration of 1.5 × 10^7 cells/mL in the corresponding medium. Cell densities were determined by using the McFarland standard as reference. An aliquot (50 μL) of the cell culture was added to each well and incubated (37°C, 24 h). The OD595 was determined in a SpectraMax 340PC (Molecular Devices, Sunnyvale, USA). Additionally, MIC values were also determined for high bacteria densities (5 × 10^8 cells/mL) corresponding to the conditions used for TEM, as described above.

Series [2] in a line: in vitro. Type of series: cell-based, human. The conditions noted are these: human. Here is the method:
(§2) Human embryonic kidney (HEK293) and HeLa cells were cultured in Dulbecco's modified Eagle's/Ham's F-12 medium [DMEM/F-12 (1:1)] supplemented with FBS (10% v/v), penicillin, and streptomycin (1000 units each). Primary rat cardiomyocytes (Innoprot, Elexalde Derio, Spain) were grown in medium supplemented with FBS (20% v/v), horse serum (5% v/v), L-glutamine (2 mmol/L), sodium pyruvate (2 mmol/L), MEM non-essential amino acids (Gibco, 0.1 mmol/L), penicillin, and streptomycin (1000 units each). Surfaces for cardiomyocyte growth were coated with attachment factor first. Cells (20,000/well) were seeded into a 96-well plate (PS, sterile, flat bottom), incubated for 24 h (37°C, 5% CO2), and washed twice with PBS (100 μl/well) prior to adding colorless medium (88 μL) and peptide solution (12 μL; 5, 2.5, 1.25, […], and 0.625 g/L in PBS). Positive controls were triton X-100 (1%, v/v) and melittin (60 mg/L) as lytic peptide, whereas PBS (12%, v/v) served as negative control. After an incubation period of 24 h, supernatant (25 μL) was mixed with lactate dehydrogenase (LDH) substrate (175 μL; 0.57 mmol/L sodium pyruvate, 0.24 mmol/L NADH disodium salt, 32 mmol/L potassium dihydrogen phosphate, 66 mmol/L dipotassium phosphate) in 96-well plates (PS, sterile, flat bottom). Absorbance was recorded at 340 nm every 3 min for 30 min on the Paradigm microplate reader. Due to the total release of LDH upon triton X-100 treatment, the control contained high LDH concentrations resulting in a fast substrate turnover that was only linear for the first 6 min.
(§3) The MTT cell viability assay relied on the same cell culture. Remaining medium was replaced by a mixture of fresh colorless medium (100 μL) and MTT (10 μL; 5 g/L in PBS) and incubated for 4 h (37°C, 5% CO2). A solution of sodium dodecyl sulfate (100 μL; 10%, w/v) dissolved in hydrochloric acid (10 mmol/L) was added, incubated (16 h), and the absorbance recorded at 590 nm relative to the reference at 650 nm (Paradigm microplate reader). The relative cell viability was calculated by [(ODPeptide − ODTriton)/(ODPBS − ODTriton)] × 100% and half-maximal inhibitory concentrations (IC50) with an Excel-template from cell biology protocols (www.sciencegateway.org/ protocols/cellbio/drug/hcic50.htm). For statistical analysis an unpaired t-test was applied using GraphPad Prism 5.0.

Series [3] deals with HeLa cells. Set-up: method as in Berthold et al., 2013; Bluhm et al., 2015. The conditions noted are these: ref Berthold et al., 2013, Bluhm et al., 2015; cited from earlier work.
On the set-up of series [4]: method as in unpublished data. The conditions noted are these: four intraperitoneal injections of 80 mg/kg per day; ref unpublished data; cited from earlier work.
The subject of series [5] is Escherichia coli ATCC25922. Set-up: method as in unpublished data. The conditions noted are these: mouse infection models with E. coli ATCC25922, doses of only 0.6 mg/kg; ref unpublished data; cited from earlier work.
Series [6] deals with P. aeruginosa DSM 9644. The format is cell-based, Pseudomonas aeruginosa. The conditions noted are these: DSM 9644, 24 h. Here is the method:
as §1

A short description of series [7]: in vitro. Type of series: cell-based, rat. The conditions noted are these: rat. How it is done:
as §2, §3

The subject of series [8] is Primary rat cardiomyocytes. Briefly: in vitro. Type of series: cell-based. The conditions noted are these: 24 h. Here is the method: as §2, §3
In series [9] the test system is HEK293 cells. Briefly: in vitro. Type of series: cell-based, human. The conditions noted are these: 24 h. How it is done: as §2, §3
Series [10] deals with HeLa cells. Briefly: in vitro. Type of series: cell-based. Particulars: 24 h. How it is done:
as §2, §3

The test system of series [11] is HeLa cells. Type of series: cell-based. Particulars: 24 h. How it is done:
as §2, with “Due to the total release of LDH upon triton X-100 treatment, the control contained high LDH concentrations resulting in a fast substrate turnover that was only linear for the first 6 min.” left out

For series [12], the system named is HeLa cells. Briefly: Flow cytometry, endocytosis inhibition with dynasore. The conditions noted are these: dynasore 0.2 mmol/L 45 min, peptide 40 μmol/L 30 min. The format is cell-based. How it is done:
Fresh colorless medium (150 μL) supplemented with either dynasore (0.2 mmol/L) dissolved in DMSO (final concentration of 0.2% v/v) or DMSO (0.2% v/v) as vehicle control was added. After 45 min (37°C) the supernatant was replaced by fresh medium supplemented with either dynasore or DMSO at the same concentrations (144 μL), Cf-labeled peptide added (6 μL, 1 mmol/L in water), and incubated (30 min, 37°C). Cells were fixed and stained with Hoechst 33342 as described above.
HeLa cells (50,000 for endocytosis inhibition and 70,000 for uptake kinetics) suspended in DMEM/F-12 medium (300 μL; see above) were seeded into 48-well plates (PS, sterile, flat bottom) and incubated (23 ± 1 h) using the conditions described above. Cells were washed twice with PBS (300 μL/well) and fresh medium was added (144 μL).
Cell cultures were prepared and incubated in the presence of dynasore, as described for microscopy. Cells were washed, treated with trypsin, and fixed as described above, dissolved in FACS buffer, and analyzed the same day.
(In general: In flow cytometry, cells or beads pass a laser one at a time.)

Molecules are shown by their SMILES. Values after ≈ are worked out from the molar mass of the structure shown. Where two headings read alike, the source gives them in different places. Where a SMILES comes first, the peptide text is derived from it. [ ]: non-standard residue; d: D form. The star is where a group is joined. Orn(α-tetramethylguanidino) = CN(C)C(=N[C@@H](CCCN)C(=O)*)N(C)C; Orn = NCCC[C@H](N)C(=O)O

Turning to `CC[C@H](C)[C@H](NC(=O)[C@H](Cc1ccc(O)cc1)NC(=O)[C@@H](NC(=O)[C@@H]1CCCN1C(=O)[C@H](CCCNC(=N)N)NC(=O)[C@H](CC(N)=O)NC(=O)[C@H](CC(N)=O)NC(=O)[C@H](CCCN)N=C(N(C)C)N(C)C)C(C)C)C(=O)N1CCC[C@H]1C(=O)N[C@@H](CCCNC(=N)N)C(=O)N1CCC[C@H]1C(=O)N[C@@H](CCCNC(=N)N)C(=O)N1CCC[C@H]1C(=O)N1CCC[C@H]1C(=O)N[C@@H](Cc1c[nH]cn1)C(=O)N1CCC[C@H]1C(=O)N[C@@H](CCCNC(=N)N)C(=O)N[C@@H](CC(C)C)C(=O)O` [Api137, gu-ONNRPVYIPRPRPPHPRL-OH, reference compound] ({Orn(α-tetramethylguanidino)}-NNRPVYIPRPRPPHPRL-OH), the “MIC P. aeruginosa DSM 3227” value in [1] is greater than 256 mg/L. Also, the viability at 24 h, 0.6 g/L in series [2] was 83 ± 3%. Moreover, in [3], the “IC50 on cell viability” value is greater than 600 mg/L. Also, in series [4], the “in vivo tolerance, acute toxic effects” value is given as “no acute toxic effects”. Also, the survival rate in series [5] is given as 100%.

For `CC(C)C[C@H](NC(=O)[C@H](CCCNC(=N)N)NC(=O)[C@@H]1CCCN1C(=O)[C@H](Cc1c[nH]cn1)NC(=O)[C@@H]1CCCN1C(=O)[C@@H]1CCCN1C(=O)[C@H](CCCNC(=N)N)NC(=O)[C@@H]1CCCN1C(=O)[C@H](CCCNC(=N)N)NC(=O)[C@@H]1CCCN1C(=O)[C@H](CCCN)NC(=O)[C@H](Cc1ccc(O)cc1)NC(=O)[C@@H](NC(=O)[C@@H]1CCCN1C(=O)[C@H](CCCNC(=N)N)NC(=O)[C@H](CCCN)NC(=O)[C@H](Cc1c[nH]c2ccccc12)NC(=O)[C@H](CCCN)NC(=O)[C@H](Cc1c[nH]c2ccccc12)NC(=O)[C@H](CCCN)NC(=O)[C@H](Cc1c[nH]c2ccccc12)NC(=O)[C@H](CCCN)N=C(N(C)C)N(C)C)C(C)C)C(=O)O` [Api794, gu-O(WO)3RPVYOPRPRPPHPRL-OH] ({Orn(α-tetramethylguanidino)}-W[Orn]W[Orn]W[Orn]RPVY[Orn]PRPRPPHPRL-OH), the “MIC P. aeruginosa DSM 9644” value in series [6] is 16 mg/L (≈ 5.4 µM). The viability at 24 h, 0.6 g/L in series [7] turned out to be 64 ± 3%. The entries for the “IC50 on cell viability” value in [8], in series [9] and in [10] were greater than 600 mg/L, 280 ± 30 mg/L (≈ 94.4 µM) and 230 ± 90 mg/L (≈ 77.6 µM), respectively. In addition, the “EC50 of LDH release” value in series [11] was determined as 560 ± 160 mg/L. Further, in [12], the “Drop of GeoMean fluorescence (uptake) in the presence of dynasore vs vehicle control” value stood at 50%.

On to `CC[C@H](C)[C@H](NC(=O)[C@H](CCCN)N=C(N(C)C)N(C)C)C(=O)N[C@@H](CCCN)C(=O)N[C@H](C(=O)N[C@@H](CCCN)C(=O)N[C@@H](CCCNC(=N)N)C(=O)N1CCC[C@H]1C(=O)N[C@H](C(=O)N[C@@H](Cc1ccc(O)cc1)C(=O)N[C@@H](CCCN)C(=O)N1CCC[C@H]1C(=O)N[C@@H](CCCNC(=N)N)C(=O)N1CCC[C@H]1C(=O)N[C@@H](CCCNC(=N)N)C(=O)N1CCC[C@H]1C(=O)N1CCC[C@H]1C(=O)N[C@@H](Cc1c[nH]cn1)C(=O)N1CCC[C@H]1C(=O)N[C@@H](CCCNC(=N)N)C(=O)N[C@@H](CC(C)C)C(=O)O)C(C)C)[C@@H](C)CC` [Api795, gu-O(IO)2RPVYOPRPRPPHPRL-OH] ({Orn(α-tetramethylguanidino)}-I[Orn]I[Orn]RPVY[Orn]PRPRPPHPRL-OH), for which the results for the viability at 24 h, 0.6 g/L in series [7] and in series [2] were 83 ± 4% and roughly 60%, respectively. Also, the “IC50 on cell viability” value in series [8], in series [9] and in series [10] was greater than 600 mg/L throughout. The “Drop of GeoMean fluorescence (uptake) in the presence of dynasore vs vehicle control” value in [12] amounted to 80%.

By viability is commonly meant a read-out of living cells in per cent, often relative to untreated cells.
